From patent publication US11731977B2, “SGC stimulators” (Cyclerion Therapeutics, Inc., priority 2016, dated 2023)

Legend:
rats [1] = assay: Inflammatory pain: carrageenan, paw pressure test (Example 13); assay type: in vivo, rat; details: Indomethacin 30 mg/kg p.o.
rats [2] = assay: Inflammatory pain: kaolin, gait score (Example 13); assay type: in vivo, rat; details: Indomethacin 30 mg/kg p.o.
Method: Kaolin. Induction: In rats, unilateral arthritis was induced by an intra-articular injection of a 10% kaolin suspension into the knee joint of the right hind paw under gas anesthesia (3.5% isoflurane/3 L/min). Gait score: The gait score will be evaluated 3 h 30 min after kaolin administration by:
2: intermittent raising of the paw

male Long Evans rats = assay: Novel Object Recognition (NOR) test, MK-801-induced memory disruption (Example 10); assay type: in vivo, rat; details: for Recognition Index, Mean: 0 to 3 minute time bin
Excerpt: Objective. To assess the efficacy of compounds of the invention in reversing memory disruption induced by MK-801 using the Novel Object Recognition (NOR) test in male Long Evans rats. The NOR is a test of recognition learning and memory retrieval, which takes advantage of the spontaneous preference of rodents to investigate a novel object compared with a familiar one (Ennaceur and Delacour, 1988). […] The NOR test has been employed extensively to assess the potential cognitive-enhancing properties of novel test compounds. […] In the present study, a memory saving model was used to test the novel compound—MK-801 (Dizocilpine), an uncompetitive antagonist of the NMD A receptor was used to cause deficit of recognition memory. Compounds of the invention were evaluated through its efficacy in reversing memory impairment.
Animals. Adult male Long-Evans rats (275-299 gram at arrival from Envigo, Indianapolis, Ind.) were used in this study. Rats were placed in the experimental rooms and assigned unique identification numbers (tail marks). Rats were housed 2 per cage in polycarbonate cages with filter tops and acclimated for at least 7 days prior to testing. Animal room was maintained in a 12/12 h light/dark cycle (lights on at 07.00 EST), 22±1° C. and relative humidity at approximately 50%. Food and water were provided ad libitum. All animals were examined, handled and weighed prior to the study to assure adequate health and to minimize the non-specific stress associated with testing. Each animal was randomly assigned across the treatment groups. The experiments were conducted during the animal's light cycle phase.
MK-801 (0.1 mg/kg; Sigma-Aldrich) was dissolved in saline and injected IP 15 min prior to NOR training.
Galantamine (1 mg/kg; Tocris) was dissolved in saline and injected IP 15 minutes prior to training.
Compound I-1 (0.01, 0.1, and 1 mg/kg) was oral administrated 60 minutes prior to training. The dose volume was 4 ml/kg
Experimental procedures. NOR test was conducted in an open-field arena (40×40 cm) placed in a sound-attenuated room under dimmed lighting. Each rat was tested separately and care was taken to remove olfactory/taste cues by cleaning the arena and test objects with 70% alcohol between trials and rats. All training and testing trials were video-taped and scored by an observer blind to treatments.
On Days 1 and 2, rats were allowed to freely explore the arena (no objects inside) for a 5-minute habituation period. On Day 3 (training and testing day), rats were administered vehicle (saline), galantamine or compound solutions followed by MK-801 or vehicle (saline). After the pretreatment time, each animal was placed into the test arena in the presence of two identical objects. Each rat was placed in the arena facing the same direction at the same position, and the time spent actively exploring the objects during a 3-minute training period (T1) was recorded. The rat was returned to its home cage following training. NOR test (T2) was conducted 1 hours after T1. Each rat was placed back into the test arena in the presence of one familiar object and one novel object for 5 minutes, and the time spent exploring both objects was recorded during 0-1, 0-3 and 0-5 min time ranges. The presentation order and position of the objects (left/right) in T2 was randomized between rats to prevent bias from order or place preference.
Statistical Analysis. Data of NOR test (T2) were expressed as Recognition Index, which is defined as the ratio of the time spent exploring the novel object over the total time spent exploring both objects (Novel/(Familiar+Novel)×100%) during the test session. Data were analyzed by using one-way ANOVA followed by Fisher's LSD post hoc test on 0-1, 0-3 and 0-5 minute time range separately, with significance set at P<0.05. […] And then statistical outliers that fell above or below two standard deviations from the mean were removed from the final analysis. […]

[3] = tested on: Sprague-Dawley rats, streptozotocin model; assay: Rat model of diabetic neuropathy (STZ model), paw pressure test (Example 14); assay type: in vivo; details: Compound I-1 10 mg/kg p.o., gabapentin 100 mg/kg p.o., morphine 4 mg/kg s.c., mean±s.e.m.
rats [4] = assay: Acute and tonic pain: formalin test, score (Example 13); assay type: in vivo, rat; details: Morphine 4 mg/kg s.c.
Method: Formalin Test. 2.5% formalin solution was injected by subplantar route into the right hind paw. Scoring of pain behavior was performed in rats for 36 minutes every 3 minutes according to the following scores:
0=normal behavior of the injected hind limb to support the body
1=slight touching of the injected paw on the floor to lightly support or not support the body
2=total withdrawal of the injected paw
3=licking, biting or shaking of the injected paw

rats [5] = assay: Post-operative pain: Brennan model, electronic Von Frey test (Example 13); assay type: in vivo, rat; details: Morphine 4 mg/kg s.c.
Excerpt: Surgery: Surgery was done under gas anesthesia (2.5% isoflurane/3 L/min). For all rats, the plantar aspect of the left hind paw was exposed and a 1 cm longitudinal incision was made using a surgical blade, through the skin and fascia of the plantar aspect of the foot, starting 0.5 cm from the proximal edge of the heel and extending toward the toes. The plantaris muscle was elevated and incised longitudinally whereas the insertions remained intact. After hemostasis with gentle pressure, the skin was stitched up with two sutures. After surgery, animals recovered in their cages.
Electronic Von Frey Test: Tactile allodynia was assessed using the electronic Von Frey test 24 h after surgery. […] The apparatus exerted a steady force on the hind paws. […] Each reaction threshold measurement was repeated three times for both hind paws with intervals of approximately 2 to 3 mins.

rats [6] = assay: Acute and tonic pain: healthy rats, tail flick test (Example 13); details: Morphine 4 mg/kg s.c.
Method: Tail Flick Test. A radiant heat was applied on the tail. When the rat felt discomfort, it reacted by a sudden tail movement (tail flick) which automatically stopped the stimulation and the timer for the measurement by the animal reaction time or nociceptive reaction latency (period from the beginning of the stimulation until detection of the response of the animal). A cut-off was previously fixed at 10 sec in order to prevent tissue damage.
(§1) Testing: 120 minutes after treatment. N=4/model/test. Results are expressed for each group as a percentage of activity calculated from the mean value of the vehicle-treated animals and compared to naïve animals, control paw, or cut-off value, depending on the test.

rats [7] = assay: Acute and tonic pain: healthy rats, paw pressure test (Example 13); details: Morphine 4 mg/kg s.c.
Method: Paw Pressure Test. Static mechanical hyperalgesia is measured. This test requires the application of an increasing pressure on the hind paws between a flat surface and a blunt pointer. To evaluate the analgesic action of a compound, one hind paw of the animal was inflamed by an injection or injured by ligation, while the other hind paw was not injured or inflamed. The apparatus exerted a steadily increasing force on the hind paws. The reaction threshold was determined as the pressure (g) required to elicit paw withdrawal and/or vocalization. The animals were gently handled by the experimenter and static mechanical hyperalgesia were assessed two times for both hind paws.
as §1

[8] = D18, 60 min post administration
[9] = D18, 120 min post administration

COc1ccc2c(c1)c(CC(=O)O)c(C)n2C(=O)c1ccc(Cl)cc1 [Indomethacin, reference compound]
% of activity vs. vehicle (rats [1]): 100%
% of activity vs. vehicle (rats [2]): 58%

C[C@]12N[C@H](Cc3ccccc31)c1ccccc12 [MK-801, MK-801 (Dizocilpine), reference compound]
Recognition Index, Mean (male Long Evans rats; Vehicle + MK-801 (0.1 mg/kg IP)): 54.1%
effect on recognition memory (Recognition Index approaching chance level, 50%) (male Long Evans rats; MK-801 0.1 mg/kg IP, 0-1, 0-3 and 0-5 min): caused a strong memory deficit

COc1ccc2c3c1O[C@H]1C[C@@H](O)C=C[C@@]31CCN(C)C2 [Galantamine, reference compound]
Recognition Index, Mean (male Long Evans rats; Galantamine (1 mg/kg IP) + MK-801): 66.2%

NCC1(CC(=O)O)CCCCC1 [Gabapentin]
nociceptive threshold (paw pressure test) [3, 8]: 272 ± 6.6 g
nociceptive threshold (paw pressure test) [3, 9]: 302 ± 17.7 g
nociceptive threshold (paw pressure test) ([3]; D21, 120 min after dosing): 274 ± 19.2 g

CN1CC[C@]23c4c5ccc(O)c4O[C@H]2[C@@H](O)C=C[C@H]3[C@H]1C5 [Morphine, reference compound]
% of activity vs. vehicle (rats [4]; Formalin test - score (early phase)): 57%
% of activity vs. vehicle (rats [4]; Formalin test - score (late phase)): 38%
% of activity vs. vehicle (rats [5]): 88%
nociceptive threshold (paw pressure test) [3, 8]: 420 ± 35 g
nociceptive threshold (paw pressure test) [3, 9]: 317 ± 27.6 g
nociceptive threshold (paw pressure test) ([3]; D21, 120 min after dosing): 283 ± 16.7 g
% of activity vs. vehicle (rats [6]): 66%
% of activity vs. vehicle (rats [7]): 69%
